Source: patent US8722654B2, “Lipoxin analogs as novel inhibitors of angiogenesis” (The Brigham and Women's Hospital, Inc., priority 2001, dated 2014)

Experiments:
HUVEC [1] = assay: Endothelial cell migration, 48-well chemotaxis chamber; format: cell-based, human; conditions: for induction of endothelial cell migration, compound alone: 100 nM, no VEGF
Procedure: VEGF, ATL-1 or vehicle were added to the lower wells of a 48-well chemotaxis chamber (NeuroProbe, Cabin John, Md.). The wells were overlaid with a 10 μm pore size polycarbonate filter coated with 0.1% gelatin. HUVEC (1×10^6) were placed in the upper wells and the chamber was incubated (37° C., 5% CO2 for 12 h). Following incubations, filters were removed, scraped of cells from the upper surface, fixed and stained with Diff-Quik (Dade Behring, Newark, Del.). Cells that migrated across the filter toward the lower surface were enumerated by light microscopy; four fields were counted at high magnification (100×). Incubations were performed in triplicate. To assess inhibition, endothelial cells were suspended in media with vehicle or ATL-1 for 15 min before placement in the chamber.

HUVEC [2] = assay: Inhibition of VEGF-stimulated HUVEC proliferation (MTT); format: cell-based, human; conditions: for % inhibition of VEGF-stimulated proliferation: equimolar 10 nM, representative experiment
Procedure: (§1) Human umbilical vein endothelial cells (HUVEC) were isolated by 0.1% collagenase digestion (Worthington Biochemical, Bedford, Mass.) and propagated on gelatin-coated (0.1%) tissue culture plates in medium 199 (Gibco BRL, Grand Island, N.Y.) supplemented with 20% heat-inactivated fetal bovine serum (BioWhittaker, Walkersville, Md.), 50 μg/ml of endothelial cell mitogen (Biomedical Technologies, Stoughton, Mass.), 8 U/ml heparin (APP, Los Angeles, Calif.), 50 U/ml penicillin and 15 μg/ml streptomycin. Only passages 2 and 3 were used in reported experiments.
(§2) HUVEC (5×10^3) were plated in 96-well plates coated with 0.1% gelatin for 1 h at room temperature. After 24 h, the medium was removed and replaced with fresh medium 199 supplemented with 5% fetal bovine serum and different concentrations of recombinant human VEGF165 (R&D Systems, Minneapolis, Minn.), LTD4 or LTB4. Endothelial cells were enumerated after 72 h using the MTT® assay (Sigma, St. Louis, Mo.) (15). ATL-1 was prepared as in Clish et al. (13). Percent inhibition was evaluated in a similar manner and included a 15 minute incubation (37° C.) with 15-epi-lipoxin A4, 15-epi-16-(para-fluoro)-phenoxy-lipoxin A4 methyl ester (ATL-1), LXA4, 15-epi-LXA4 or 15-R/S-methyl, LXA4 prior to the addition of agonists. All incubations were performed in triplicate. Before each experiment the integrity and concentration of ATL-1, LXA4, 15-epi-LXA4 or 15-R/S-methyl, LXA4 was assessed by physical methods including LC/MS/MS and UV (13).

HUVEC [3] = assay: HUVEC proliferation induced by the compound alone (MTT); format: cell-based, human
Procedure: as §1, §2

HUVEC [4] = assay: Inhibition of LTD4-stimulated HUVEC proliferation (MTT); format: cell-based, human; conditions: LTD4 10 nM; ATL-1 0.1-100 nM; read-out: IC50, antagonism of mitogenic action of LTD4
Procedure: as §1
as §2, with “Endothelial cells were enumerated after 72 h using the MTT® assay (Sigma, St. Louis, Mo.) (15). ATL-1 was prepared as in Clish et al. (13).” left out, “All incubations were performed in triplicate.” left out

HUVEC [5] = assay: HUVEC viability, trypan blue exclusion assay; format: cell-based, human; conditions: after exposure to ATL-1
HUVEC [6] = assay: Quantitative determination of DNA fragmentation (apoptosis); format: cell-based, human; conditions: 100 nM alone or with VEGF 3 ng/ml; n=2, d=3
Procedure: DNA fragmentation in individual apoptotic cells was quantitated using a photometric enzyme immunoassay (Apotosis detection kit: R&D Systems). HUVECs grown in 96-well microtiter plates (5×10^3 cells/well) were incubated for 3 days, fixed with 3.7% formaldehyde, and permeabilized with proteinase K before the labeling. Biotinylated nucleotides are incorporated onto the DNA fragments and detected by using steptavidin-horseradish peroxidase conjugate followed by the substrate TACS-Sapphire.

murine air pouch = assay: Inflammatory angiogenesis, VEGF-treated murine air pouch; format: in vivo, mice (BALB/c)
Procedure: Angiogenesis was assessed with murine air pouches that were raised via subcutaneous injection of sterile air (3 ml) beneath the dorsal skin of anesthetized mice (BALB/c, male 6-8 wk). After 24 hrs, ATL-1 (10 μg/pouch) or vehicle was delivered locally, immediately before the injection of VEGF (1 μg/pouch). The vascular content was assessed by the formation of vascular casts (as in 16). Briefly, mice were anesthetized (at 144 h) and peripheral vasodilation was raised by placing the animals in a heated jacket (40° C., 10 min). Vascular casts were formed by the i.v. injection of 1 ml 5% carmine red (Sigma) in 5% gelatin solution warmed to 40° C. Air pouch linings were dissected and weighed. The tissue was then dissolved in 2 ml of 3 N NaOH solution for 0.5 h, 21° C. and completely digested in hot water (56° C.) for 10 min. Digested samples were centrifuged (2500 rpm, 15 min) and filtered through a 0.45 μm filter. The dye content was quantified employing a 96-well plate spectrophotometer at 530 nm using a calibration curve. The results were expressed as vascular index (VI) as micrograms carmine dye/milligram weight of tissue, for n=4 animals/group. For visualization of the vasculature, the dorsal surface of the pouches was excised and fixed in formalin for 48 h. The tissues were dehydrated with 100% ethanol (5 days, 4° C.) and cleared by immersion in cedar wood oil for 2 weeks. In another set of experiments, mice were anesthetized and injected i.v. with 200 μl of 0.05 g/ml fluorescein isothiocyanate-dextran (Sigma) in PBS at 144 h immediately before sacrifice. Dissected linings were fixed, mounted on glass slides and examined for fluorescence (Nikon Eclipse model E600). In both protocols, the observers were not blinded to the treatments.
Air pouch membranous tissues were fixed in 10% buffered formalin overnight and processed for paraffin embedding. Five-micrometer paraffin sections of membrane tissue cut on face were used for immunohistochemistry for CD31 expression. Briefly, slides were deparaffinized and pretreated in 0.25% trypsin (Sigma Chemical) for 20 min at 37° C., followed by washing in distilled water. All further steps were performed at room temperature in a hydrated chamber. Slides were pretreated with Peroxidase Block (DAKO, Carpinteria, Calif.) for 5 min to quench endogenous peroxidase activity, followed by a 1:5 dilution of goat serum in 50 Mm Tris-Cl, pH 7.4, for 20 min to block nonspecific binding sites. Primary rat anti-murine CD31 antibody (BD PharMingen, San Diego, Calif.) was applied at a 1:100 dilution in 50 mMTris-Cl, pH 7.4, with 3% goat serum for 1 h. After washing in 50 mM Tris-Cl, pH 7.4, secondary rabbit anti-rat antibody (DAKO) was applied at a 1:200 dilution in 50 mM Tris-Cl, pH 7.4, with 3% goat serum for 30 min. Slides were washed again in 50 mM Tris-Cl, pH 7.4, and goat anti-rabbit horseradish peroxidase-conjugated antibody (Envision detection kit: DAKO) was applied for 30 min. After further washing, immunoperoxidase staining was developed using a DAB chromogen kit (DAKO) per the manufacturer and counterstained with hematoxylin.

[7] = Mean arterial pressure after i.v. dosing; format: in vivo; conditions: 10 μg/mouse i.v.

Compound: CCCCCC(C)(O)/C=C/C=C\C=C\C=C\[C@@H](O)[C@@H](O)CCCC(=O)OC (relative stereo) [15-R/S-methyl, LXA4, 5S,6R,15R/S-trihydroxy-15-methyl-7,9,13-trans-11-cis-eicosatetraenoic acid, methyl ester]
- induction of endothelial cell migration, compound alone (HUVEC [1]): did not induce endothelial cell migration
- inhibition of VEGF-stimulated HUVEC migration (HUVEC [1]; VEGF 3 ng/ml): concentration-dependent inhibition

Compound: CCCCC[C@@H](O)/C=C/C=C\C=C\C=C\[C@@H](O)[C@@H](O)CCCC(=O)O (relative stereo) [15-epi-LXA4, 5S,6R,15R-trihydroxy-7,9,13-trans-11-cis-eicosatetraenoic acid]
- % inhibition of VEGF-stimulated proliferation (HUVEC [2]): 59.8±1.8%
- induction of endothelial cell migration, compound alone (HUVEC [1]): did not induce endothelial cell migration
- inhibition of VEGF-stimulated HUVEC migration (HUVEC [1]; VEGF 3 ng/ml): concentration-dependent inhibition

Compound: CCCCC[C@H](O)/C=C/C=C\C=C\C=C\[C@@H](O)[C@@H](O)CCCC(=O)O (relative stereo) [LXA4, 5S,6R,15S-trihydroxy-7,9,13-trans-11-cis-eicosatetraenoic acid]
- % inhibition of VEGF-stimulated proliferation (HUVEC [2]): 38.1±2.0%
- induction of endothelial cell migration, compound alone (HUVEC [1]): did not induce endothelial cell migration
- inhibition of VEGF-stimulated HUVEC migration (HUVEC [1]; VEGF 3 ng/ml): concentration-dependent inhibition

Compound: CCCCC[C@H](O)[C@@H](O)/C=C/C=C/C=C\C=C\[C@@H](O)CCCC(=O)O [14-epi-LXB4]
- Percent of Proliferation (HUVEC [3]; 0.1 nM): 15.5 ± 1.0%
- Percent of Proliferation (HUVEC [3]; 1.0 nM): 18.3 ± 1.6%
- Percent of Proliferation (HUVEC [3]; 10 nM): 27.0 ± 5.0%
- Percent of Proliferation (HUVEC [3]; 100 nM): 27.7 ± 1.3%

Compound: CCCCC[C@H](O)[C@H](O)/C=C/C=C/C=C\C=C\[C@@H](O)CCCC(=O)O [15-epi-LXB4]
- Percent of Proliferation (HUVEC [3]; 0.1 nM): 20.1 ± 1.2%
- Percent of Proliferation (HUVEC [3]; 1.0 nM): 26.1 ± 2.8%
- Percent of Proliferation (HUVEC [3]; 10 nM): 34.0 ± 2.5%
- Percent of Proliferation (HUVEC [3]; 100 nM): 35.2 ± 5.2%

Compound: O=C(O)CCC[C@H](O)[C@H](O)/C=C/C=C/C=C\C=C\[C@@H](O)COc1ccc(F)cc1 [ATL-1, 15-epi-16-(para-fluoro)-phenoxy-lipoxin A4]
- % of VEGF-stimulated proliferation (HUVEC [2]; ATL-1 plus genistein 50 μM, 5 min, 37° C., n=3): 78.0±6.21%
- % of VEGF-stimulated proliferation (HUVEC [2]; ATL-1 without genistein): 38.0±2.5%
- IC50 (HUVEC [2]; VEGF 3 ng/ml, 3 days, MTT, read-out: IC50, inhibition of VEGF-stimulated proliferation of HUVECs): ~3 nM
- concentration of maximal plateau of inhibition (HUVEC [2]; VEGF-stimulated proliferation): 10 nM
- % inhibition of VEGF-stimulated proliferation (HUVEC [2]): 63.3±3.3%
- action on HUVEC proliferation, analog alone (HUVEC [3]; 100 nM, no VEGF): no apparent actions
- IC50 (HUVEC [4]): ~3 nM
- maximum level of inhibition of VEGF-stimulated HUVEC migration (HUVEC [1]; 10 nM, VEGF 3 ng/ml): ~45%
- induction of endothelial cell migration, compound alone (HUVEC [1]): did not induce endothelial cell migration
- inhibition of VEGF-stimulated HUVEC migration (HUVEC [1]; VEGF 3 ng/ml): concentration-dependent inhibition
- HUVEC remaining viable (HUVEC [5]): ~98%
- DNA fragmentation pattern (HUVEC [6]): Neither the ATL-1 (100 nM) alone nor in combination with VEGF (3 ng/ml) affected DNA fragmentation pattern
- reduction in the vascular index (murine air pouch; 10 μg/pouch local, before VEGF 1 μg/pouch, day 6): ~48%
- VEGF-elicited vasculature, fluorescein isothiocyanate-dextran microscopy (murine air pouch; 10 μg/pouch, day 6): striking reduction of VEGF-elicited vasculature
- vessels by CD31 immunohistochemical staining (murine air pouch; VEGF-treated mice): marked diminution of vessels
- vascular density, carmine vascular casts (murine air pouch; VEGF-treated, day 6 air pouch linings): clearly reduced vascular density
- changes in mean arterial pressure [7]: does not evoke apparent changes

Compound: CCCCC/C=C\C[C@@H](O)/C=C/C=C/C=C\[C@@H](O)CCCC(=O)O [LTB4, reference compound]
- stimulated proliferation of HUVEC (HUVEC [3]; 10 nM): did not give a significant response
- neovascularization, compound alone (murine air pouch; 10 μg/pouch alone, n=2): stimulated neovascularization

Compound: CCCCC/C=C\C\C=C/C=C/C=C/[C@@H](SC[C@H](N)C(=O)NCC(=O)O)[C@@H](O)CCCC(=O)O [LTD4, reference compound]
- effect of LTD4 on VEGF-stimulated proliferation (HUVEC [2]): did not enhance or inhibit
- stimulated proliferation of HUVEC (HUVEC [3]; 10 nM): 42±1.2%

Compound: VEGF [reference compound]
- VEGF response, proliferation of HUVEC (HUVEC [3]; VEGF comparison in LTD4 experiment): 52.7±1.6%
- VEGF-induced proliferation (HUVEC [3]; footnote of table, VEGF comparison): VEGF-induced proliferation: 50.4 ± 4.0%
